The record followed here is patent publication US9540343B2 (Gilead Sciences, Inc., priority 2011, dated 2017).

Some results are limits rather than exact numbers.

A word on the inhibition: it is the percentage by which the read-out fell short of the control. As a reminder, the CC50 is the concentration giving 50% cytotoxicity. A low value points to greater toxicity to the cells. By % inhibition is commonly meant the share of the control response that was lost under treatment. Low values mean a weak effect, high ones a strong effect.

The subject of data set [1] is HIV-IIIb. Put plainly: Test A: Antiviral assay in MT4 cells. The class given is cell-based, HIV-1. The following applies: MT-4 cells infected with HIV-IIIb, 5 days, CellTiter-Glo; for inhibition at 2 µM: Human immunodeficiency virus 1, IIIB, MT4, 120 h, read-out: % inhibition at 2 μM, percent inhibition of virus-induced cell killing, from dose response curve at 2 uM drug. A general note: In ATP-based viability assays light output follows the ATP content of the culture.

Data set [2] can be described thus: in vitro. The gist of the method:
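Cytoprotection read-out: CellTiter-Glo chemiluminescence after 5 days at 37 °C of HIV-IIIb-infected MT-4 cells (m.o.i. 0.003) with compound in 10-point 3-fold dilutions, quadruplicate, 10% FBS. Cytotoxicity (CC50) measured identically without virus.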

The mark [3] stands for this setting: human, uninfected MT-4 cells, CC50 (nM), same protocol as Test A, CellTiter-Glo.

With `CC(C)(C)OC(=O)NCc1ccc2[nH]cc(CC(=O)N[C@@H](Cc3cc(F)cc(F)c3)c3ncccc3-c3ccc(Cl)cc3)c2c1` [Example 557, (S)-tert-butyl (3-(2-(1-(3-(4-chlorophenyl)pyridin-2-yl)-2-(3,5-difluorophenyl)ethylamino)-2-oxoethyl)-1H-indol-5-yl)methylcarbamate], the inhibition at 2 µM in data set [1] was determined as 73%. The molecule also came in with a half-maximal cytotoxic concentration (CC50) at 5 days in data set [2] (setting [3]) of 7860 nM.
On to `NC(=O)c1cccc(-c2cccnc2[C@H](Cc2cc(F)cc(F)c2)NC(=O)Cc2ccccn2)c1` [Example 569, (S)-3-(2-(2-(3,5-difluorophenyl)-1-(2-(pyridin-2-yl)acetamido)ethyl)pyridin-3-yl)benzamide], for which the inhibition at 2 µM in data set [1] turned out to be 11%. Further, the CC50 at 5 days in data set [2] (setting [3]) was > 53000 nM.
The matching figures for `O=C(Cn1nc(C(F)(F)F)c2c1CCCC2)NC(Cc1cc(F)cc(F)c1)c1nccnc1-c1ccc(Cl)cc1` (stereo not shown) [Example 474, N-(1-(3-(4-chlorophenyl)pyrazin-2-yl)-2-(3,5-difluorophenyl)ethyl)-2-(3-(trifluoromethyl)-4,5,6,7-tetrahydro-1H-indazol-1-yl)acetamide]: 17% and 9980 nM.
For `NC(=O)c1cc(-c2cccnc2[C@H](Cc2cc(F)cc(F)c2)NC(=O)[C@@H]2C[C@H](Oc3ccccc3)CN2)ccc1F` [Example 165, (2S,4S)—N—((S)-1-(3-(3-carbamoyl-4-fluorophenyl)pyridin-2-yl)-2-(3,5-difluorophenyl)ethyl)-4-phenoxypyrrolidine-2-carboxamide], in that order: 0% and 52500 nM.
For `NC(=O)c1cc(-c2cccnc2[C@H](Cc2cc(F)cc(F)c2)NC(=O)Cn2nc3c(c2C(F)(F)OCc2ccccn2)CCCC3)ccc1F` [Example 143, (S)-5-(2-(1-(2-(3-(difluoro(pyridin-2-ylmethoxy)methyl)-4,5,6,7-tetrahydro-2H-indazol-2-yl)acetamido)-2-(3,5-difluorophenyl)ethyl)pyridin-3-yl)-2-fluorobenzamide], in that order: 10% and 19900 nM.
With `NC(=O)c1cc(-c2cccnc2[C@H](Cc2cc(F)cc(F)c2)NC(=O)Cn2nc(C(F)F)c3c2C2CC2CC3(F)F)ccc1F` (stereo partly drawn) [Example 304C, 5-(2-((1S)-1-(2-(3-(difluoromethyl)-4,4-difluoro-5,5a,6,6a-tetrahydrocyclopropa[g]indazol-1(4H)-yl)acetamido)-2-(3,5-difluorophenyl)ethyl)pyridin-3-yl)-2-fluorobenzamide], the inhibition at 2 µM in data set [1] stood at 94%. The molecule also came in with a half-maximal cytotoxic concentration (CC50) at 5 days in data set [2] (setting [3]) of 1700 nM.
Take `NC(=O)c1cc(-c2cccnc2[C@H](Cc2cc(F)cc(F)c2)NC(=O)Cn2nc(C(F)F)c(Br)c2C(F)F)ccc1F` [Example 555C, (S)-5-(2-(1-(2-(4-bromo-3,5-bis(difluoromethyl)-1H-pyrazol-1-yl)acetamido)-2-(3,5-difluorophenyl)ethyl)pyridin-3-yl)-2-fluorobenzamide]: the inhibition at 2 µM in data set [1] amounted to 14%. In addition, the cytotoxic concentration (CC50) at 5 days in data set [2] (setting [3]) is 25500 nM.
With `N#Cc1cc(-c2cccnc2[C@H](Cc2cc(F)cc(F)c2)NC(=O)Cc2c[nH]c3ccc(F)cc23)ccn1` [Example 377, (S)—N-(1-(2′-cyano-3,4′-bipyridin-2-yl)-2-(3,5-difluorophenyl)ethyl)-2-(5-fluoro-1H-indol-3-yl)acetamide], in data set [1], the inhibition at 2 µM stood at 22%. The midpoint of cytotoxicity in data set [2] (setting [3]), the CC50 at 5 days, lay at 18600 nM.
For `NC(=O)c1cc(-c2cccnc2[C@H](Cc2cc(F)cc(F)c2)NC(=O)Cc2c[nH]c3ccc(O)cc23)ccn1` [Example 310C, (S)-2-(2-(3,5-difluorophenyl)-1-(2-(5-hydroxy-1H-indol-3-yl)acetamido)ethyl)-3,4′-bipyridine-2′-carboxamide], in that order: 97% and > 53000 nM.
As to `O=C(N[C@@H](Cc1cc(F)cc(F)c1)c1ncccc1-c1ccc(Cl)cc1)C(c1c[nH]c2ccc(F)cc12)C(F)(F)F` (single isomer, unassigned) [Example 36F], in data set [1] (percent inhibition of virus-induced cell killing, from dose response curve at 2 uM drug), the “% inhibition at 2 μM” value was 15%. This molecule registered a half-maximal cytotoxic concentration (CC50) at 5 days in data set [2] (setting [3]) of 7200 nM.
Regarding `NC(=O)c1cc(-c2cccnc2[C@H](Cc2cc(F)cc(F)c2)NC(=O)COc2ccccc2)ccc1F` [Example 164, (S)-5-(2-(2-(3,5-difluorophenyl)-1-(2-phenoxyacetamido)ethyl)pyridin-3-yl)-2-fluorobenzamide], the inhibition at 2 µM in data set [1] was 2%. Moreover, the CC50 at 5 days in data set [2] (setting [3]) worked out at 29900 nM.
With `CC(C)Oc1ccc(-c2cccnc2[C@H](Cc2cc(F)cc(F)c2)NC(=O)Cn2nc(C(F)(F)F)c3c2CCCC3)cc1` [Example 100, (S)—N-(2-(3,5-difluorophenyl)-1-(3-(4-isopropoxyphenyl)pyridin-2-yl)ethyl)-2-(3-(trifluoromethyl)-4,5,6,7-tetrahydro-1H-indazol-1-yl)acetamide], the inhibition at 2 µM in data set [1] was found to be 56%. For the same molecule, the CC50 at 5 days in data set [2] (setting [3]) is 7830 nM.
For `COC1CN(C(=O)c2cc(C(C)C)nn2CC(=O)N[C@@H](Cc2cc(F)cc(F)c2)c2ncccc2-c2ccc(F)c(C(N)=O)c2)C1` [Example 598, (S)-5-(2-(2-(3,5-difluorophenyl)-1-(2-(3-isopropyl-5-(3-methoxyazetidine-1-carbonyl)-1H-pyrazol-1-yl)acetamido)ethyl)pyridin-3-yl)-2-fluorobenzamide], in data set [1], the inhibition at 2 µM is 3%. Also, the CC50 at 5 days in data set [2] (setting [3]) was > 53200 nM.
Regarding `NC(=O)c1cc(-c2cccnc2[C@H](Cc2cccc(F)c2)NC(=O)Cn2nc(C(F)(F)F)c3c2CCSC3)ccc1F` [Example 228B, (S)-2-fluoro-5-(2-(2-(3-fluorophenyl)-1-(2-(3-(trifluoromethyl)-6,7-dihydrothiopyrano[4,3-c]pyrazol-1(4H)-yl)acetamido)ethyl)pyridin-3-yl)benzamide], the inhibition at 2 µM in data set [1] was determined as 51%. The cytotoxic concentration (CC50) at 5 days in data set [2] (setting [3]) came out at 23400 nM.
Take `NC(=O)c1cc(-c2cccnc2[C@H](Cc2cc(F)cc(F)c2)NC(=O)Cn2nc(C(F)(F)F)c3c2CCS(=O)(=O)C3)ccc1F` [Example 263, (S)-5-(2-(2-(3,5-difluorophenyl)-1-(2-(5,5-dioxido-3-(trifluoromethyl)-6,7-dihydrothiopyrano[4,3-c]pyrazol-1(4H)-yl)acetamido)ethyl)pyridin-3-yl)-2-fluorobenzamide]: the inhibition at 2 µM in data set [1] was found to be 17%. Besides, the cytotoxic concentration (CC50) at 5 days in data set [2] (setting [3]) was > 53200 nM.
Regarding `O=C(Cn1nc(C(F)F)c2c1C(F)(F)C1CC21)N[C@@H](Cc1cc(F)cc(F)c1)c1ncccc1-c1ccc(S(=O)(=O)N2CCCCC2)cc1` (stereo partly drawn) [Example 71, (S)—N-(1-(3-(4-((piperidin-1-yl)sulfonyl)phenyl)-pyridin-2-yl)-2-(3,5-difluorophenyl)ethyl)-2-(3-(difluoromethyl)-5,6-dihydro-4,5-(methano)-6,6-difluoro-cyclopenta[c]pyrazol-1(4H)-yl)acetamide], the inhibition at 2 µM in data set [1] amounted to 64%. Moreover, the CC50 at 5 days in data set [2] (setting [3]) was > 53200 nM.
Take `Cc1cccc2[nH]cc(CC(=O)N[C@@H](Cc3cc(F)cc(F)c3)c3ncccc3-c3cccc(C(N)=O)c3)c12` [Example 481, (S)-3-(2-(2-(3,5-difluorophenyl)-1-(2-(4-methyl-1H-indol-3-yl)acetamido)ethyl)pyridin-3-yl)benzamide]: the inhibition at 2 µM in data set [1] was found to be 53%. In data set [2] (setting [3]), this molecule came in with a cytotoxic concentration (CC50) at 5 days of 22900 nM.
On to `NC(=O)c1cc(-c2cccnc2[C@H](Cc2cc(F)cc(F)c2)NC(=O)Cn2nc(C(F)F)cc2C2CC2)ccc1F` [Example 317, (S)-5-(2-(1-(2-(5-cyclopropyl-3-(difluoromethyl)-1H-pyrazol-1-yl)acetamido)-2-(3,5-difluorophenyl)ethyl)pyridin-3-yl)-2-fluorobenzamide], for which the inhibition at 2 µM in data set [1] was found to be 41%. Moreover, in data set [2] (setting [3]), the CC50 at 5 days was > 47600 nM.
For `NC(=O)c1cc(-c2cccnc2[C@H](Cc2cc(F)cc(F)c2)NC(=O)Cn2ccc3cnccc32)ccc1F` [Example 514, (S)-5-(2-(1-(2-(1H-pyrrolo[3,2-c]pyridin-1-yl)acetamido)-2-(3,5-difluorophenyl)ethyl)pyridin-3-yl)-2-fluorobenzamide], in that order: 3% and > 46100 nM.
For the molecule `Cc1cc(-c2cccnc2[C@H](Cc2cc(F)cc(F)c2)NC(=O)Cn2nc(C(F)(F)F)c3c2CCCC3)cnc1F` [Example 89, (S)—N-(2-(3,5-difluorophenyl)-1-(6′-fluoro-5′-methyl-3,3′-bipyridin-2-yl)ethyl)-2-(3-(trifluoromethyl)-4,5,6,7-tetrahydro-1H-indazol-1-yl)acetamide], the inhibition at 2 µM in data set [1] is 73%. The same molecule came in with a CC50 at 5 days in data set [2] (setting [3]) of 10700 nM.
For `O=C(Cc1c[nH]c2ccc(F)cc12)N[C@@H](Cc1cc(F)cc(F)c1)c1ncccc1-c1ccc(Cl)cc1` [Example 33, (S)—N-(1-(3-(4-chlorophenyl)pyridin-2-yl)-2-(3,5-difluorophenyl)ethyl)-2-(5-fluoro-1H-indol-3-yl)acetamide], in that order: 75% and 9750 nM.
In the case of `COCc1cc(C(F)(F)F)nn1CC(=O)N[C@@H](Cc1cc(F)cc(F)c1)c1ncccc1-c1ccc(F)c(C(N)=O)c1` [Example 208D], in data set [1], the inhibition at 2 µM is 2%. Also, in data set [2] (human, CC50 (nM), uninfected MT-4 cells, same protocol as Test A, CellTiter-Glo), the CC50 at 5 days is > 53200 nM.
For `Nc1ccc(-c2cccnc2[C@H](Cc2cc(F)cc(F)c2)NC(=O)Cn2nc(C(F)F)c3c2C(F)(F)CCC3(F)F)cn1` [Example 375, (S)—N-(1-(6′-amino-3,3′-bipyridin-2-yl)-2-(3,5-difluorophenyl)ethyl)-2-(3-(difluoromethyl)-4,4,7,7-tetrafluoro-4,5,6,7-tetrahydro-1H-indazol-1-yl)acetamide], the inhibition at 2 µM in data set [1] came to 98%. For the same molecule, it took 15200 nM to reach half-maximal cytotoxicity in data set [2] (setting [3]) (CC50 at 5 days).
